Here are results for three molecules from patent US20240285502A1, “HAIR GROWTH AGENT” (ADJUVANT HOLDINGS CO., LTD., priority 2021, published 2024).

This assay concerns VEGF gene expression in human dermal papilla cells. Description: Evaluation of human dermal papilla cell VEGF gene expression (real-time PCR). Conditions: 72 hours stimulation, relative to negative control group, GAPDH internal standard, FIG. 1. Type of assay: cell-based. The method, then: The VEGF gene is expressed in dermal papilla cells, and contributes to expression of such effects as increase in hair shaft diameter and improving maximum hair shaft length and improving hair shaft elongation rate and hair shaft growth promotion at head hair, beard, eyebrows, and/or eyelashes. Human dermal papilla cells were therefore used, and evaluation was carried out with respect to increase in VEGF gene expression for the respective components. Human dermal papilla cells (Catalog No. CA60205a; derived from person; Toyobo Co., Ltd. (Japan)) were purchased, testing and evaluation being carried out with maintenance and culture of cells being performed as described in the protocol. As drugs for testing, drug solutions of the following respective concentrations (final concentrations) were prepared and used. • Comparative Example 1: 30 μM minoxidil • Working Example 1: 0.3125 μM phytosphingosine • Working Example 2: 1.25 μM phytosphingosine • Working Example 3: Liquid mixture of 30 μM minoxidil and 1.25 μM phytosphingosine A 24-well plate was seeded with human dermal papilla cells so as to obtain 6×10^3 thereof per well. Following culture for 1 day within a CO2 incubator (5% CO2; 37° C.), the culture medium was replaced with culture medium which contained the respective drugs for testing. The cell plate was thereafter returned to the CO2 incubator, and this was further cultured for 72 hours. […] The GAPDH gene was used as an internal standard, the amount of VEGF gene expression being calculated relative to the negative control group. […] Concentration of the recovered RNA was measured using a NanoDrop Lite (Catalog No. ND-LITE; Thermo Fisher Scientific K.K.), and this was stored at -80° C. until the following cDNA creation procedure. […] II cDNA synthesis 5× Ready Mix (Catalog No. NE-LS64; Nippon Genetics Co., Ltd. (Japan)) was used to synthesize cDNA. […] II cDNA synthesis 5× Ready Mix was added to 16 μL of this sample solution, and this was agitated by vortexing. […]
A general note: Quantitative PCR measures a nucleic acid by following its amplification.

As to `CCCCCCCCCCCCCC[C@@H](O)[C@@H](O)[C@@H](N)CO` [phytosphingosine], the “change in amount of expression of the VEGF gene” value is reported as “significantly greater than that which was produced as a result of action of minoxidil”.
The entry for `CCCCCCCCCCCCCC[C@@H](O)[C@@H](O)[C@@H](N)CO` [Working Example 2, phytosphingosine] is “increase in dosage-dependent fashion in the amount of expression of the VEGF gene as compared with the control group”; for `CCCCCCCCCCCCCC[C@@H](O)[C@@H](O)[C@@H](N)CO` [Working Example 1, phytosphingosine] it is “increase in dosage-dependent fashion in the amount of expression of the VEGF gene as compared with the control group”.
